We go through 27 sequences from the OligoGym collection.

After the bases stand the sugars from the 5' end (letter, count) and the backbone: PS all phosphorothioate, else s phosphorothioate and o phosphodiester by linkage. Methylation of C is not given here. e = 2'-O-(2-methoxyethyl) (MOE); k = constrained ethyl (cEt); d = 2'-deoxy (DNA)

The target in the data set is SOD1. Conditions: ASO.

“AGGTCATTGAAACAGAC (sugars e3 k2 d7 k2 e3, PS)” returned a target mRNA inhibition (HepG2, 3 µM) of 21%.

As for “CTAGCAGGATAACAGAT (sugars e3 k2 d7 k2 e3, PS)”, for the setting “HepG2, 3 µM”, the target mRNA inhibition turned out to be 39%.

Regarding “TAATGTTTATCAGGATA (sugars e2 k2 d8 k2 e3, linkages s1 o2 s9 o2 s2)”, the target mRNA inhibition is 0% (A431, 0.12 µM); 38% (A431, 0.6 µM); 54% (A431, 3 µM); 68% (A431, 15 µM); 64% (HepG2, 0.222 µM); 89% (HepG2, 0.667 µM). Also, the target mRNA inhibition reads like this: (HepG2, 2 µM) 94%; (HepG2, 6 µM) 92%.

In turn, “TGGCAAAATACAGGTCA (sugars e2 k2 d8 k2 e3, PS)” displayed a target mRNA inhibition (HepG2, 5 µM) of 33%.

Consider “GTTTATTGGGCGATCCC (sugars e2 k2 d8 k2 e3, PS)”, for which the target mRNA inhibition (HepG2, 4 µM) came to 54%.

Consider “TTCCCCACACCTTCACTG (sugars e5 d8 e5, linkages s1 o3 s9 o2 s2)”, for which the target mRNA inhibition (A431, 0.12 µM) amounted to 2%; the target mRNA inhibition (A431, 0.6 µM) came to 0%; the target mRNA inhibition (A431, 3 µM) came to 0%; the target mRNA inhibition (A431, 15 µM) is 9%; the target mRNA inhibition (HepG2, 0.222 µM) came out at 7%; the target mRNA inhibition (HepG2, 0.667 µM) is 4%. Also, the target mRNA inhibition was determined as 42% (HepG2, 2 µM) and 17% (HepG2, 6 µM).

“ATACAGGTCATTGAAAC (sugars e2 k2 d8 k2 e3, PS)” registered a target mRNA inhibition (HepG2, 5 µM) of 33%.

“CGCCGAGGTCCTGGTTCCGA (sugars e5 d10 e5, PS)”: the target mRNA inhibition (HepG2, 4 µM) was 24%.

For “TTCATCCTTTGGCCCAC (sugars e3 k2 d7 k2 e3, PS)”, where the note is “HepG2, 3 µM”, the target mRNA inhibition was 26%.

Turning to “TTAAAGTGAGGACCTGC (sugars e3 k2 d7 k2 e3, PS)”, the target mRNA inhibition (HepG2, 3 µM) was 14%.

Where the note is “HepG2, 3 µM”, “AGCAGGATAACAGATGA (sugars e3 k2 d7 k2 e3, PS)” displayed a target mRNA inhibition of 45%.

On to “TGAGATCACAGAATCTTCAA (sugars e5 d10 e5, PS)”, for which the target mRNA inhibition (HepG2, 5 µM) came out at 30%.

For the sequence “TATTGGGCGATCCCAAT (sugars e2 k2 d8 k2 e3, PS)”, the target mRNA inhibition (HepG2, 4 µM) turned out to be 19%.

Sequence “GAAATTCTGACAAGTTT (sugars e3 k2 d7 k2 e3, PS)” displayed a target mRNA inhibition (HepG2, 3 µM) of 14%.

“GTGTTTAATGTTTATCAG (sugars e5 d8 e5, linkages s1 o3 s9 o2 s2)” yielded a target mRNA inhibition (A431, 0.12 µM) of 1%; a target mRNA inhibition (A431, 0.6 µM) of 15%; a target mRNA inhibition (A431, 3 µM) of 36%; a target mRNA inhibition (A431, 15 µM) of 50%; a target mRNA inhibition (HepG2, 0.222 µM) of 20%; a target mRNA inhibition (HepG2, 0.667 µM) of 43%. This sequence also displayed a target mRNA inhibition (HepG2, 2 µM) of 56% and a target mRNA inhibition (HepG2, 6 µM) of 81%.

Regarding “GCGATCCCAATTACACC (sugars e3 k2 d7 k2 e3, PS)”, the target mRNA inhibition (HepG2, 3 µM) turned out to be 19%.

The sequence “GCTTGAATGACAAAGAA (sugars e2 k2 d9 k2 e2, PS)” registered a target mRNA inhibition (HepG2, 5 µM) of 32%.

Take “TCCTTTGGCCCACCGTG (sugars e3 k2 d7 k2 e3, PS)”: the target mRNA inhibition (HepG2, 3 µM) came out at 39%.

Consider “GGATTCTTTTAATAGCC (sugars e2 k2 d9 k2 e2, PS)”, for which the target mRNA inhibition (HepG2, 5 µM) is 19%.

Consider “TTCATGGACCACCAGTGTGC (sugars e5 d10 e5, PS)”, for which, for the setting “HepG2, 5 µM”, the target mRNA inhibition was found to be 21%.

“GCCTCAGACTACATCCA (sugars e3 k2 d7 k2 e3, PS)” registered a target mRNA inhibition (HepG2, 3 µM) of 43%.

For the sequence “ATTACACCACAAGCCAA (sugars e2 k2 d9 k2 e2, PS)”, the target mRNA inhibition (HepG2, 4 µM) came to 63%.

Take “CCGAGGTCCTGGTTCCGAGG (sugars e5 d10 e5, PS)”: the target mRNA inhibition (HepG2, 4 µM) was 18%.

“CGCAAACCAGCACCCCGTCT (sugars e5 d10 e5, PS)” returned a target mRNA inhibition (HepG2, 4 µM) of 21%.

In turn, “CCTTCACTGGTCCATTA (sugars e3 k2 d7 k2 e3, PS)” showed a target mRNA inhibition (HepG2, 3 µM) of 8%.

Take “TGGTCCATTACTTTCCT (sugars e3 k2 d7 k2 e3, PS)”: the target mRNA inhibition (HepG2, 3 µM) was 5%.

Sequence “ACAGGTACTTTAAAGCA (sugars e2 k2 d9 k2 e2, PS)” showed a target mRNA inhibition (HepG2, 5 µM) of 20%.
